Assay [1] deals with pmm-2 F125L/F125L worms. Nature of the assay: Bortezomib-induced growth suppression rescue screen in pmm-2 F125L worms. The assay is classed as in vivo, nematode (worms). Conditions: 25 μM drug, 11 μM Bzb, 5 days; one row per replicate. The text has this:
A F119L point mutation strain, orthologous F125L in worms was created.
Because an underlying defect in glycosylation may be manifested when subjected to external chemical stressors, Pmm-2 F119L homozygous animals were subjected to Tunicamycin and Bortezomib drug exposures. Tunicamycin is an inhibitor of N-linked glycosylation and Bortezomib (Bzb) is an irreversible inhibitor of the proteasome. It was contemplated that either or both drugs would affect the Pmm-2 mutants differently compared to wild type (“WT”).
Thus, Bzb-induced growth suppression was used as a means to identify compounds that might rescue the global effects of exacerbated glycosylation deficiency. Using this approach, animals were age-synchronized to obtain L1 larvae. Fifteen L1 larvae were dispensed into wells of a 384-well plate containing 25 μM of drugs (obtained from the MicroSource Spectrum library purchased from MicroSource Discovery Systems) and 11 μM Bzb. Bacterial media at fixed optical density was added to wells to enable worms to grow for a 5 day period. Animals were dispensed using Biosorter, a large particle flow cytometer by Union Biometrica, Mass. At the end of the 5 day period, animals were treated with 15 μls of 8 mM sodium azide (for 55 μls of total assay volume). After 20 minutes, immobilized animals were imaged using a plate imager under transmitted light. A custom image processing script was used to extract the areas occupied by worms/well over a 5 day period. Each plate has positive controls (no Bzb) and negative controls (11 μM Bzb) that was used to determine the z score of test wells per plate. After outlier correction for each plate in each replicate, data from all three replicates was compared. Wells per plate with positive z scores greater than 2 were identified as “hits.” If hits reproduced across all three replicates were then compared. […] At least 13 of the 20 compounds belong to the category of antioxidants; still others fall in the category of catecholamines

In assay [2] the test system is SEC53 variant (pmm2 mutant) yeast. Nature of the assay: Yeast growth rescue of SEC53 variant strains (validation of drug screen hits). The assay is classed as cell-based. The following applies: haploid and heterozygous diploid cells; dose response. As for the experimental part:
All strains used herein are in S288c background. Strains were grown in Synthetic Complete (“SC”) or SC drop out media (Sunrise)+2% dextrose at 30° C. unless otherwise noted. Standard genetic procedures of transformation and tetrad analysis were followed to construct strains. SEC53 rescue plasmid (pPL1) was generated by cloning the SEC53 promoter, open reading frame, and terminator sequences into the episomal pRS316 containing the URA3 selectable marker. SEC53 variants were generated by cloning the relevant promoter, GFP or SEC53 gene, and CYC1 terminator sequences into an integrating plasmid containing the LEU2 selectable marker and integrated at the SwaI restriction site into the HO locus. For PMM2 variants, the SEC53 ORF was replaced with a codon-optimized PMM2. Plasmids were generated by Next Interactions or GenScript. Strains were generated by Next Interactions or well-known techniques.
Cells from plates were resuspended in SC media to OD600=1.0, then serial diluted into 50 μL SC+FOA media in 384-well plates at 10^−1, 10^−2, and 10^−3. Plates were incubated at 30° C. and absorbance reading at […] were measured by a plate reader (Molecular Devices SpectraMax M3) at the indicated time points. Plates were vortexed briefly to resuspend cells prior to plate readings. 5-floroortic acid was purchased from US Biological and used at a concentration of 1 mg/L.
125 nL of compounds or DMSO were dispensed into 384-well plates using the Echo acoustic dispenser (LabCyte) to achieve a final concentration of 25 μM. 50 μL of 10^−2 dilution of an OD600=1.0 or 0.5 yeast cell suspensions were dispensed into the 384-well plates containing compounds or DMSO with a MultiFlo automated dispenser (Biotek). Plates were covered and incubated at 30° C. for 16-21 hours until OD600 reaches ˜0.8. Plates were vortexed briefly to resuspend cells prior to reading.
MicroSource Spectrum compounds were reordered from MicroSource Discovery Systems and resuspended in DMSO. 5-125 nL compounds or DMSO were dispensed into 384-well plates and 50 μL of yeast cell suspensions or media were dispensed by multichannel pipettes to achieve the desired concentration. Plates were covered and incubated at 30° C. for 16-23 hours until OD600 reaches ˜0.8. Plates were vortexed briefly to resuspend cells prior to plate readings.
pACT1-F126L, pSEC53-V238M, and pSEC53-F126L haploids and pACT1-F126L/pACT1-R148H, pSEC53-V238M/pSEC53-R148H, and pSEC53-F126L/pSEC53-R148H heterozygous diploids were advanced to a high-throughput drug screen. Screening was done in a 2,560 compound MicroSource Spectrum library collection consisting of FDA approved drugs, bioactive tool compounds, and natural products. Each strain was screened in duplicate and in 384-well plates, with each plate containing 32 wells of the negative control (no drugs) and 24 wells of the positive controls (wild type cells). […] Additionally, there is good correlation between replicates (correlation >0.4 for all panels). With a Z-score cutoff of 2.0, we initially identified six compounds that may be promising and their ability to rescue growth is conserved between the haploid and diploid strains.
These initial hits were further studied for validation. […] At the maximum dose tested, alpha-cyano-4-hydroxycinnamic acid (Compound 1) rescues the F126L allele by 17.7% in haploid and 24.5% in diploid cells.

Counter-ions that a name gives are not always drawn.

Regarding `O=C(O[C@@H]1Cc2c(O)cc(O)cc2O[C@@H]1c1ccc(O)c(O)c1)c1cc(O)c(O)c(O)c1` [EPICATECHIN MONOGALLATE, epicatechin monogallate], the Status result in assay [1] is on record as “HIT (Wells per plate with positive z scores greater than 2 were identified as “hits.”)”.

For the compound `O=c1oc2c(O)c(O)cc3c(=O)oc4c(O)c(O)cc1c4c23` [ELLAGIC ACID, ellagic acid], in assay [1], the Status result was “HIT (Wells per plate with positive z scores greater than 2 were identified as “hits.”)”. Same read-out and setting: to `O=c1cc(-c2ccccc2)oc2cc(O)c(O)c(O)c12` [BAICALEIN, baicalein] belongs “HIT (Wells per plate with positive z scores greater than 2 were identified as “hits.”)”. Turning to `N[C@@H](Cc1ccc(O)c(O)c1)C(=O)O` [LEVODOPA, levodopa, reference compound], the Status result in assay [1] was “HIT (Wells per plate with positive z scores greater than 2 were identified as “hits.”)”. As to `O=c1c(O)c(-c2ccc(O)c(O)c2)oc2c(O)c(O)cc(O)c12` [GOSSYPETIN, gossypetin], the Status result in assay [1] was “HIT (Wells per plate with positive z scores greater than 2 were identified as “hits.”)”.

Turning to `COc1ccc(-c2coc3cc(O)ccc3c2=O)c(O)c1O` [KOPARIN, koparin], the Status entry in assay [1] is listed as “HIT (Wells per plate with positive z scores greater than 2 were identified as “hits.”)”.

In the case of `CCC(N)C(O)c1ccc(O)c(O)c1` (stereo not shown) [ETHYLNOREPINEPHRINE HYDROCHLORIDE, ethylnorepinephrine hydrochoride, reference compound], in assay [1], the Status result is on record as “HIT (Wells per plate with positive z scores greater than 2 were identified as “hits.”)”.

With `O=c1cc(-c2cc(O)c(O)c(O)c2)oc2cc(O)cc(O)c12` [HIERACIN, hieracin], the Status result in assay [1] is listed as “HIT (Wells per plate with positive z scores greater than 2 were identified as “hits.”)”.

Consider `CC(CCc1ccc(O)cc1)NCCc1ccc(O)c(O)c1` (stereo not shown) [DOBUTAMINE HYDROCHLORIDE, dobutamine hydrochloride, reference compound], for which the Status entry in assay [1] is listed as “HIT (Wells per plate with positive z scores greater than 2 were identified as “hits.”)”.

With `COc1ccc(C(=O)c2ccc(O)cc2)c(O)c1O` [2,3,4′-TRIHYDROXY-4-METHOXYBENZOPHENONE, 2,3,4′-trihydroxy-4-methoxybenzophenone], the Status entry in assay [1] is “HIT (Wells per plate with positive z scores greater than 2 were identified as “hits.”)”. On the same count and under the same terms, to `O=C(O[C@@H]1Cc2c(O)cc(O)cc2O[C@@H]1c1cc(O)c(=O)c2c(O)c(O)cc([C@H]3Oc4cc(O)cc(O)c4C[C@H]3O)c2c1)c1cc(O)c(O)c(O)c1` [THEAFLAVIN MONOGALLATES, theaflavin monogallate] belongs “HIT (Wells per plate with positive z scores greater than 2 were identified as “hits.”)”; to `COc1cc(O)c2c(=O)c(O)c(-c3ccc(O)c(O)c3)oc2c1` [RHAMNETIN, rhamnetin], “HIT (Wells per plate with positive z scores greater than 2 were identified as “hits.”)”. Consider `NCCS` [cysteamine hydrochloride, reference compound], for which the “rescue of growth of SEC53 alleles” value in assay [2] is “does not rescue at any dose”.

As for `COc1cc(OC)c2c(=O)c(O)c(-c3ccc(OC)c(OC)c3)oc2c1` [QUERCETIN 5,7,3,4′-TETRAMETHYL ETHER, quercetin 5,7,3′,4′-tetramethyl ether], the Status result in assay [1] is reported as “HIT (Wells per plate with positive z scores greater than 2 were identified as “hits.”)”. As for `Nc1ccc(O)c(N)c1` [AMIDOL DIHYDROCHLORIDE, amidol dihydrochloride], in assay [1], the Status result is reported as “HIT (Wells per plate with positive z scores greater than 2 were identified as “hits.”)”. On to `O=c1c(O)cccc2ccc(O)c(O)c12`, for which the Status result in assay [1] was “HIT (Wells per plate with positive z scores greater than 2 were identified as “hits.”)”. As for `CC1=NN(c2ccccc2)C(=O)C1` [EDARAVONE, edaravone, reference compound], in assay [1], the Status entry is “HIT (Wells per plate with positive z scores greater than 2 were identified as “hits.”)”. Same read-out and setting: to `COc1cccc(O)c1O` [3-METHOXYCATECHOL, 3-methoxycatechol] belongs “HIT (Wells per plate with positive z scores greater than 2 were identified as “hits.”)”; to `O=C(O)c1cc(O)c(=O)c2c(O)c(O)c(O)cc2c1` [PURPUROGALLIN-4-CARBOXYLIC ACID, purpurogallin-4-carboxylic acid], “HIT (Wells per plate with positive z scores greater than 2 were identified as “hits.”)”.

Turning to `Cc1ccc(C(=O)Nc2ccc(S(=O)(=O)O)c3cc(S(=O)(=O)O)cc(S(=O)(=O)O)c23)cc1NC(=O)c1cccc(NC(=O)Nc2cccc(C(=O)Nc3cc(C(=O)Nc4ccc(S(=O)(=O)O)c5cc(S(=O)(=O)O)cc(S(=O)(=O)O)c45)ccc3C)c2)c1` [Compound 3, 8-[[4-methyl-3-[[3-[[3-[[2-methyl-5-[(4,6,8-trisulfonaphthalen-1-yl)carbamoyl]phenyl]carbamoyl]phenyl]carbamoylamino]benzoyl]amino]benzoyl]amino]naphth alene-1,3,5-trisulfonic acid], in assay [2], the “rescue of growth of SEC53 alleles” value was “consistent and dose-dependent rescues”.

Consider `CCOc1cccc(C(=O)c2ccc(O)c(O)c2O)c1` [3,4-didesmethyl-5-deshydroxy-3′-ethoxyscleroin], for which the Status entry in assay [1] is on record as “HIT (Wells per plate with positive z scores greater than 2 were identified as “hits.”)”.

Take `O=c1c(O)c(-c2ccc(O)c(O)c2)oc2cc(O)ccc12` [FISETIN, fisetin]: the Status entry in assay [1] was “HIT (Wells per plate with positive z scores greater than 2 were identified as “hits.”)”.

For the origin of these results see patent US11160794B2, “Methods for treating congenital disorders of glycosylation” (Maggie's Pearl, LLC, priority 2018, dated 2021).
